This note sets out measurements from US12122816B2, “Long acting peptide tyrosine tyrosine (PYY) analogs and methods of use” (Intarcia Therapeutics, Inc., priority 2020, dated 2024).

In general, EC50 refers to the concentration that produces a half-maximal response. Higher therefore signals a need for much substance.

One data set has as its target T1, human Y1 receptor (Homo sapiens, UniProt P25929).
T1 sequence (P25929 1-384): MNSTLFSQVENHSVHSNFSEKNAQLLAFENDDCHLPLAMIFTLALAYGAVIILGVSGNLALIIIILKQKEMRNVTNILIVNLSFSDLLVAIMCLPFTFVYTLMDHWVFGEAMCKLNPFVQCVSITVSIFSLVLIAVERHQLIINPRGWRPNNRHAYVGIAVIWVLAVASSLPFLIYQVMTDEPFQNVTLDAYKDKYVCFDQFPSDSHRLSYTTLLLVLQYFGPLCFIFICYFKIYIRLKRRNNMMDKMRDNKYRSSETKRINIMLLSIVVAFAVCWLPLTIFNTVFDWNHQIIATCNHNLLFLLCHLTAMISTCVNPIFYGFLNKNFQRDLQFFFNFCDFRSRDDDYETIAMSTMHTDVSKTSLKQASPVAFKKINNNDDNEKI
Kind of data set: NPY receptor functional assay (cAMP, HEK-CNG cells, ACTOne membrane potential dye). Type of data set: cell-based. From the text:
The NPY family of G-protein coupled receptors include Y1, Y2, Y4, and Y5 in humans and rats. […] Following agonist binding, the receptor-G protein complex activates a downstream intracellular signaling cascade which leads to inhibition of adenylate cyclase and a reduction in intracellular cAMP levels.
HEK-CNG cells stably expressing the human or rat Y1, Y2, Y4 or Y5 receptors (Codex Biosolutions) were used to characterize the functional potency of peptide agonists using the ActOne™ membrane potential dye kit (Codex Biosolutions). In addition to each NPY receptor, each cell line encodes a proprietary exogenous Cyclic Nucleotide-Gated (CNG) channel (Codex Biosolutions). The channel is activated by elevated intracellular levels of cAMP, resulting in ion flux and cell membrane depolarization which can be detected with a calcium sensitive dye or fluorescent membrane potential (MP) dye. Cells were carried in growth media containing 90% DMEM, 10% FBS, 250 mcg/mL G418 and 1 mcg/mL puromycin for no more than 15 passages.
Prior to testing, cells were counted and dispensed at 14,000 cells per well (Y1, Y4 and Y5) or 28,000 cells per well (Y2) into black 384 well Poly-D-Lysine plates at 20 mcL per well. Covered plates were then incubated at room temperature for 30 minutes followed by an overnight incubation at 37° C. in 5% C02. The following day, media was removed and wells were washed once with 40 mcL Dulbecco's phosphate buffered saline. […] Ten microliters of experimental peptide or peptide standard was added in triplicate to wells and incubated for 50 minutes at room temperature in the dark. Following this incubation step, plates were read again as before (final read).
NPY receptor activation, leading to a reduction in intracellular cAMP levels, is detected as a decrease in isoproteranol induced fluorescent signal. Peptide standard and experimental values were initially transformed in excel using the formula: final read/initial read. […] Normalized data was analyzed from triplicate tests and used to estimate the EC50 for each test peptide on each receptor. Data was fit in GraphPad Prism software (v8.2.1) using a 3-parameter logistic curve model: Y=Bottom+(Top−Bottom)/(1+10^((LogEC50−X))). EC50 values were converted to pEC50 values using the formula: pEC50=−Log(EC50).

The next data set addresses T2, human Y5 receptor (Homo sapiens, UniProt Q15761).
T2 sequence (Q15761 1-445): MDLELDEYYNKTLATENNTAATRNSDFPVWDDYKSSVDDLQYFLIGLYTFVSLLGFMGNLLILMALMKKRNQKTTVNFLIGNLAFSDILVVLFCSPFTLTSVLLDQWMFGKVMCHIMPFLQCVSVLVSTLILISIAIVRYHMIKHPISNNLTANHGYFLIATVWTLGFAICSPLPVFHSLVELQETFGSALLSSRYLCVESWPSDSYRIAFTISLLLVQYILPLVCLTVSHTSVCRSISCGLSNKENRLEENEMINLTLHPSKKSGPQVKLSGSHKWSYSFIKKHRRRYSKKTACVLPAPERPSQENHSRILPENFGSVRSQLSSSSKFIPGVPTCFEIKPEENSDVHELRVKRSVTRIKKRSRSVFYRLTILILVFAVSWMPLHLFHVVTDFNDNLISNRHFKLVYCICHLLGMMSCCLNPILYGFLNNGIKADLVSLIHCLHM
Described as above. Type of data set: cell-based. The following applies: NPY5R pEC50, HEK-CNG cells; standard NPY; species (human or rat) not given. The method in brief: (§1)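 HEK-CNG cells stably expressing each human receptor; peptides added in triplicate for 50 minutes at room temperature, with agonism read as decreased isoproterenol-induced membrane potential dye signal (final/initial read).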

The next data set addresses T3, human Y2 receptor (Homo sapiens, UniProt P49146).
T3 sequence (P49146 1-381): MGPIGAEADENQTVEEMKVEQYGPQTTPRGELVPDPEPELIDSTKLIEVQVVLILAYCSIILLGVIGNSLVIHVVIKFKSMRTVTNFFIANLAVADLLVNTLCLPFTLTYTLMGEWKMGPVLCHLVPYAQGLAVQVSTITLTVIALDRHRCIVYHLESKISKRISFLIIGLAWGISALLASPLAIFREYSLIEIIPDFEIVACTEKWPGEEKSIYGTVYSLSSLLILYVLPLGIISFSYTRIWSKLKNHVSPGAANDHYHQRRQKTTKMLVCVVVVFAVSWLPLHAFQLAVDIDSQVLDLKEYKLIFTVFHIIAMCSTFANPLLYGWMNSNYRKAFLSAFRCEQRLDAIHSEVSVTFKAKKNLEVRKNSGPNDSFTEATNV
Described as above. Type of data set: cell-based. The following applies: NPY2R pEC50, HEK-CNG cells; standard PYY(3-36); species (human or rat) not given. The method in brief: as §1

The nature of data set [1]: In vitro metabolic stability in kidney brush border membranes (kBBM). Format: in vitro ADME. The following applies: pH 7.4, human kBBM 50 mcg protein/mL, 1 mcM peptide, 37° C., read-out: hkBBM t½ (converted). Here is the method: In vitro incubations in kidney brush border membrane (kBBM) preparations were used to characterize the ability of peptides to resist degradation by proteases and peptidases in the systemic circulation. kBBM were selected because they contain a high concentration of a diverse set of proteases and peptidases, many of which are present throughout the body.
Brush border membranes from rat and human kidney tissue were prepared via centrifugation and stored at −70° C. Thawed stocks of rat or human kBBM were diluted to the appropriate concentration in 25 mM HEPES buffer (pH 7.4) containing 1% casein and aliquoted into a 96-well plate. The kBBM solutions were pre-warmed for 10 minutes at 37° C. […] The final concentration of kBBM in each incubation was 50 mcg protein/mL. Reactions were maintained at 37° C. in a shaking water bath. […] Quenched samples were centrifuged at 2178×g for 10 min and then a portion of the supernatants were transferred to a clean 96-well plate and diluted 1:1 with water. Samples were analyzed by UPLC-MS/MS.

Data set [2] in a line: In vitro stability in subcutaneous (SC) tissue homogenates. Type of data set: in vitro ADME. The following applies: subcutaneous tissue homogenate, pH 7.4; human SC tissue homogenate 1.0 mg protein/mL, 10 mcM peptide, 37° C.; read-out: (H)SC tissue stability t½ (converted). Here is the method: In vitro incubations in subcutaneous (SC) tissue homogenates were used to characterize the ability of peptides to resist pre-systemic degradation by proteases and peptidases after SC administration. […] Peptides with high SC bioavailability are stable in this assay, while peptides with low SC bioavailability are unstable in this assay.
Human SC tissue was homogenized in cold 25 mM HEPES buffer (pH 7.4, 10-fold volume based on sample weight), and then filtered through a double layer of cheesecloth. The filtrates were aliquoted, flash frozen on a methanol/dry ice bath and stored at −80° C. The protein concentration of each pooled batch was determined using the BCA protein assay. Thawed stocks of human SC tissue homogenates were diluted to 1.0 mg protein/mL in 25 mM HEPES buffer (pH 7.4) and aliquoted into a 96-well plate. The diluted SC homogenates were pre-warmed for 10 minutes at 37° C. […] Reactions were maintained at 37° C. in a shaking water bath. […] Quenched samples were centrifuged at 2178×g for 10 min and then a portion of the supernatants were transferred to a clean 96-well plate and diluted 1:10 with water. Samples were analyzed by UPLC-MS/MS.

Starred links: 1 amine or outer side, 2 acyl side, 3 side chain; linkers in the order of their positions; H or OH if unused. Residues, ends and D or L forms follow the SMILES beside them. Groups on a side chain read outwards from the residue. *: point of attachment. C20 diacid = O=C(O)CCCCCCCCCCCCCCCCCCC(=O)*; γGlu = O=C(O)[C@H](CCC(=O)[*:2])N[*:1]

Consider `CC(C)C[C@H](NC(=O)[C@H](CC(=O)O)NC(=O)[C@H](CCCCN)NC(=O)[C@H](Cc1ccc(O)cc1)NC(=O)[C@H](Cc1ccc(O)cc1)NC(=O)[C@H](CCCNC(=N)N)NC(=O)[C@H](CC(N)=O)NC(=O)[C@H](Cc1c[nH]c2ccccc12)NC(=O)[C@H](CCC(=O)O)NC(=O)[C@H](CCCCN)NC(=O)[C@@H]1CCCN1C(=O)[C@H](CO)NC(=O)[C@H](C)NC(=O)[C@H](CC(=O)O)NC(=O)[C@H](CCC(=O)O)NC(=O)CNC(=O)[C@@H]1CCCN1C(=O)[C@H](CCCCNC(=O)CC[C@H](NC(=O)CC[C@H](NC(=O)CCCCCCCCCCCCCCCCC(=O)O)C(=O)O)C(=O)O)NC(=O)[C@H](CCC(=O)O)NC(=O)[C@@H]1CCCN1C(=O)[C@H](CCCCN)NC(=O)[C@@H]1CCCN1)C(=O)N[C@@H](CCCNC(=N)N)C(=O)N[C@@H](Cc1c[nH]cn1)C(=O)N[C@@H](Cc1ccc(O)cc1)C(=O)N[C@@H](CC(C)C)C(=O)N[C@@H](CC(N)=O)C(=O)N[C@@H](Cc1c[nH]c2ccccc12)C(=O)N[C@@H](CC(C)C)C(=O)N[C@H](C(=O)N[C@@H](CCCNC(=N)N)C(=O)N[C@@H](CCC(N)=O)C(=O)N[C@@H](CCCNC(=N)N)C(=O)N[C@@H](Cc1ccccc1)C(N)=O)[C@@H](C)O` [Compound A38], for which the EC50 was 2.51 nM at human Y1 receptor and 3.98 nM at human Y5 receptor.
In the case of `CC(C)C[C@H](NC(=O)[C@H](CC(=O)O)NC(=O)[C@H](CCCCN)NC(=O)[C@H](Cc1ccc(O)cc1)NC(=O)[C@H](Cc1ccc(O)cc1)NC(=O)[C@H](CCCNC(=N)N)NC(=O)[C@H](CC(N)=O)NC(=O)[C@H](Cc1c[nH]c2ccccc12)NC(=O)[C@H](CCC(=O)O)NC(=O)[C@H](CCCCN)NC(=O)[C@@H]1CCCN1C(=O)[C@H](CO)NC(=O)[C@H](C)NC(=O)[C@H](CC(=O)O)NC(=O)[C@H](CCC(=O)O)NC(=O)CNC(=O)[C@@H]1CCCN1C(=O)[C@H](CCCCNC(=O)CC[C@H](NC(=O)CC[C@H](NC(=O)CCCCCCCCCCCCCCCCCCC(=O)O)C(=O)O)C(=O)O)NC(=O)[C@H](CCC(=O)O)NC(=O)[C@@H]1CCCN1C(=O)[C@H](CCCCN)NC(=O)[C@@H]1CCCN1)C(=O)N[C@@H](CCCNC(=N)N)C(=O)N[C@@H](Cc1c[nH]cn1)C(=O)N[C@@H](Cc1ccc(O)cc1)C(=O)N[C@@H](CC(C)C)C(=O)N[C@@H](CC(N)=O)C(=O)N[C@@H](Cc1c[nH]c2ccccc12)C(=O)N[C@@H](CC(C)C)C(=O)N[C@H](C(=O)N[C@@H](CCCNC(=N)N)C(=O)N[C@@H](CCC(N)=O)C(=O)N[C@@H](CCCNC(=N)N)C(=O)N[C@@H](Cc1ccccc1)C(N)=O)[C@@H](C)O` [Compound A72], the EC50 on human Y1 receptor is 1 nM; on human Y2 receptor, 0.0158 nM; at human Y5 receptor, 1.58 nM.
In the case of `CC(C)C[C@H](NC(=O)[C@H](CC(=O)O)NC(=O)[C@H](CCCCNC(=O)CC[C@H](NC(=O)CC[C@H](NC(=O)CCCCCCCCCCCCCCCCCCC(=O)O)C(=O)O)C(=O)O)NC(=O)[C@H](Cc1ccc(O)cc1)NC(=O)[C@H](Cc1ccc(O)cc1)NC(=O)[C@H](CCCNC(=N)N)NC(=O)[C@H](CC(N)=O)NC(=O)[C@H](Cc1c[nH]c2ccccc12)NC(=O)[C@H](CCC(=O)O)NC(=O)[C@H](CCCCN)NC(=O)[C@@H]1CCCN1C(=O)[C@H](CO)NC(=O)[C@H](C)NC(=O)[C@H](CC(=O)O)NC(=O)[C@H](CCCCN)NC(=O)CNC(=O)[C@@H]1CCCN1C(=O)[C@H](CCCCN)NC(=O)[C@H](CCC(=O)O)NC(=O)[C@@H]1CCCN1C(=O)[C@H](CCCCN)NC(=O)[C@@H]1CCCN1)C(=O)N[C@@H](CCCNC(=N)N)C(=O)N[C@@H](Cc1c[nH]cn1)C(=O)N[C@@H](Cc1ccc(O)cc1)C(=O)N[C@@H](CC(C)C)C(=O)N[C@@H](CC(N)=O)C(=O)N[C@@H](Cc1c[nH]c2ccccc12)C(=O)N[C@@H](CC(C)C)C(=O)N[C@H](C(=O)N[C@@H](CCCNC(=N)N)C(=O)N[C@@H](CCC(N)=O)C(=O)N[C@@H](CCCNC(=N)N)C(=O)N[C@@H](Cc1ccccc1)C(N)=O)[C@@H](C)O` [Compound A28] (H-PKPEKPGKDASPKEWNRYYK([γGlu-γGlu-C20 diacid])DLRHYLNWLTRQRF-NH2; N-terminus assumed), the EC50 at human Y2 receptor is 0.0316 nM; at human Y5 receptor, 1.58 nM. Besides, in data set [1], the half-life at 1 mcM is 5.2 h. Also, the half-life at 10 mcM in data set [2] is 0.2 h.
